Source: article PMC9435431, “Novel chemical entities inhibiting Mycobacterium tuberculosis growth identified by phenotypic high-throughput screening” (Scientific Reports, 2022)
In brackets after ≈: the same amount, converted by molar mass. Read-outs that look alike come from different tables or passages of the source.

What was measured:
[1] = test system: wild-type M. tuberculosis; test: microbe, parasite or virus in culture; format: cell-based, Mycobacterium tuberculosis; conditions: for MIC / IC90: Mycobacterium tuberculosis
[2] = in vitro; format: in vitro ADME, human; conditions: for microsomal clearance / stability (in words): human microsomes; for CLint scaled at 0.5 µM: human, microsomes, pH 7.4, human Clint
Experimental: Compounds (0.5 µM) were incubated with 0.25 mg/mL liver microsomal proteins at pH 7.4 at 37 °C. Reactions were initiated with […] and samples taken at 0, 5, 10, 15, 20 and 30 min. The reaction was stopped by addition of 95% ACN/5% MeOH containing an internal standard. Samples were combined in compound groups of six pre-sorted by mono molecular weight and analyzed by LC/MS/MS. The peak area ratios (analyte peak area/IS peak area) were converted to % remaining using the area ratio at time 0 as 100%. The. half-life (T ½) and intrinsic clearance (mCLint) were calculated.

[3] = Table 5, read-out: Wild-type MIC

CC(C)(C)CC(C)(C)N1CC=C(c2c[nH]c3ccccc23)CC1 [Molecule 4PP-47, 3-(1-(2,4,4-Trimethylpentan-2-yl)-1,2,3,6-tetrahydropyridin-4-yl)-1H-indole]
MIC ([1]; 120 h, read-out: MIC): 9.6 ± 2.2 µM (≈ 2.98 µg/mL) | MIC ([1]; read-out: MIC): 9.6 µM (≈ 2.98 µg/mL)

CC(C)(C)CC(C)(C)N1CCC(c2c[nH]c3ccccc23)CC1 [Molecule 4PP-48, 3-(1-(2,4,4-Trimethylpentan-2-yl)piperidin-4-yl)-1H-indole]
MIC ([1]; 120 h, read-out: MIC): 1.6 µM (≈ 0.5 µg/mL) | MIC ([1]; read-out: MIC): 1.6 µM (≈ 0.5 µg/mL)

CC(C)(C)CC(C)(C)N1CCN(c2ccc(C(C)(C)C)cc2)CC1 [Molecule 4PP-49, 1-(4-(t-Butyl)phenyl)-4-(2,4,4-trimethylpentan-2-yl)piperazine]
anti-tubercular activity (in words) [1]: loss in activity | MIC ([1]; 120 h, read-out: MIC): > 5 µM

CC(C)(C)CC(C)(C)N1CCN(c2ccccc2)CC1 [Molecule 4PP-50, 1-Phenyl-4-(2,4,4-trimethylpentan-2-yl)piperazine]
anti-tubercular activity (in words) [1]: loss in activity | MIC ([1]; 120 h, read-out: MIC): > 10 µM

FC1CN(CC2CCCCC2)CCC1c1ccccc1.O=C(O)C(F)(F)F (centres unmarked) [Molecule 4PP-51, 1-(Cyclohexylmethyl)-3-fluoro-4-phenyl-piperidine; 2,2,2-trifluoroacetic acid]
anti-tubercular activity (in words) [1]: not tolerated | MIC ([1]; 120 h, read-out: MIC): > 20 µM

FC1CN(CC2CCCCC2)CCC1c1ccc(Cl)cc1.O=C(O)C(F)(F)F (centres unmarked) [Molecule 4PP-52, 4-(4-Chlorophenyl)-1-(cyclohexylmethyl)-3-fluoro-piperidine; 2,2,2-trifluoroacetic acid]
anti-tubercular activity (in words) [1]: not tolerated | MIC ([1]; 120 h, read-out: MIC): > 20 µM

COc1ccc(C2CCN(CC3CCCCC3)CC2F)cc1.O=C(O)C(F)(F)F (centres unmarked) [Molecule 4PP-53, 1-(Cyclohexylmethyl)-3-fluoro-4-(4-methoxyphenyl)piperidine; 2,2,2-trifluoroacetic acid]
anti-tubercular activity (in words) [1]: not tolerated | MIC ([1]; 120 h, read-out: MIC): > 20 µM

COc1cc(CCNC(=O)C2(c3ccccc3)CCC2)ccc1O [PCB-3, N-(4-hydroxy-3-methoxyphenethyl)-1-phenylcyclobutane-1-carboxamide]
microsomal clearance / stability (in words) [2]: clearance was improved | CLint scaled at 0.5 µM [2]: 12.5 L/h/kg | MIC ([1]; 120 h, read-out: MIC): > 20 µM | MIC ([1]; read-out: MIC): > 20 µM

O=C(NCCc1ccc2c(c1)OCO2)C1(c2ccccc2)CCC1 [PCB-4, N-(2-(benzo[d][1,3]dioxol-5-yl)ethyl)-1-phenylcyclobutane-1-carboxamide]
microsomal clearance / stability (in words) [2]: intermediate clearance | CLint scaled at 0.5 µM [2]: 52.1 L/h/kg | anti-tubercular activity (in words) [1]: retained anti-tubercular activity | MIC ([1]; 120 h, read-out: MIC): 12 ± 2.6 µM (≈ 3.88 µg/mL)

O=C(NCCc1cccc(Br)c1)C1(c2ccccc2)CCC1 [PCB-5, N-(3-bromophenethyl)-1-phenylcyclobutane-1-carboxamide]
CLint scaled at 0.5 µM [2]: 236 L/h/kg | MIC ([1]; 120 h, read-out: MIC): 4.9 ± 1.7 µM (≈ 1.76 µg/mL) | MIC ([1]; read-out: MIC): 4.9 µM (≈ 1.76 µg/mL)

O=C(NCCc1ccc(Br)cc1)C1(c2ccccc2)CCC1 [PCB-6, N-(4-bromophenethyl)-1-phenylcyclobutane-1-carboxamide]
CLint scaled at 0.5 µM [2]: 35.6 L/h/kg | MIC ([1]; 120 h, read-out: MIC): 5.4 ± 0.3 µM (≈ 1.93 µg/mL) | MIC ([1]; read-out: MIC): 5.4 µM (≈ 1.93 µg/mL)

O=C(NCCc1cccc(C(F)(F)F)c1)C1(c2ccccc2)CCC1 [PCB-7, 1-phenyl-N-(3-(trifluoromethyl)phenethyl)cyclobutane-1-carboxamide]
microsomal clearance / stability (in words) [2]: increased clearance | CLint scaled at 0.5 µM [2]: 270 L/h/kg | MIC ([1]; 120 h, read-out: MIC): 3.7 ± 2.7 µM (≈ 1.29 µg/mL) | MIC ([1]; read-out: MIC): 3.7 µM (≈ 1.29 µg/mL)

O=C(NCCc1cc(Br)ccn1)C1(c2ccccc2)CCC1 [PCB-8, N-(2-(4-bromopyridin-2-yl)ethyl)-1-phenylcyclobutane-1-carboxamide]
microsomal clearance / stability (in words) [2]: improved clearance | CLint scaled at 0.5 µM [2]: 69.7 L/h/kg | MIC ([1]; 120 h, read-out: MIC): > 20 µM | MIC ([1]; read-out: MIC): > 20 µM

O=C(N[C@H]1CCc2ccc(Br)cc2C1)C1(c2ccccc2)CCC1 [PCB-9, (S)-N-(7-bromo-1,2,3,4-tetrahydronaphthalen-2-yl)-1-phenylcyclobutane-1-carboxamide]
microsomal clearance / stability (in words) [2]: increased microsomal clearance | CLint scaled at 0.5 µM [2]: 273 L/h/kg | MIC ([1]; 120 h, read-out: MIC): 6.9 ± 2.9 µM (≈ 2.65 µg/mL) | MIC ([1]; read-out: MIC): 6.9 µM (≈ 2.65 µg/mL)

O=C(Nc1ncc2c(Br)cccc2n1)C1(c2ccccc2)CCC1 [PCB-10, N-(5-bromoquinazolin-2-yl)-1-phenylcyclobutane-1-carboxamide]
microsomal clearance / stability (in words) [2]: reasonable clearance | CLint scaled at 0.5 µM [2]: 14.4 L/h/kg | MIC ([1]; 120 h, read-out: MIC): 9.3 ± 1 µM (≈ 3.56 µg/mL) | MIC ([1]; read-out: MIC): 9.3 µM (≈ 3.56 µg/mL)

O=C(NCC(O)c1ccc2c(c1)OCO2)C1(c2ccccc2)CCC1 (centres unmarked) [PCB-11, N-(2-(benzo[d][1,3]dioxol-5-yl)-2-hydroxyethyl)-1-phenylcyclobutane-1-carboxamide]
microsomal clearance / stability (in words) [2]: lower clearance | CLint scaled at 0.5 µM [2]: 9.66 L/h/kg | MIC ([1]; 120 h, read-out: MIC): > 20 µM | MIC ([1]; read-out: MIC): > 20 µM

O=C(CNC(=O)C1(c2ccccc2)CCC1)c1cccc(Br)c1 [PCB-12, N-(2-(3-bromophenyl)-2-oxoethyl)-1-phenylcyclobutane-1-carboxamide]
microsomal clearance / stability (in words) [2]: did not improve clearance | CLint scaled at 0.5 µM [2]: 47.3 L/h/kg | anti-tubercular activity (in words) [1]: tolerated | MIC ([1]; 120 h, read-out: MIC): 7.3 ± 0.3 µM (≈ 2.72 µg/mL)

Brc1cccc(-c2nc(C3(c4ccccc4)CCC3)no2)c1 [PCB-13, 5-(3-bromophenyl)-3-(1-phenylcyclobutyl)-1,2,4-oxadiazole]
microsomal clearance / stability (in words) [2]: high clearance | CLint scaled at 0.5 µM [2]: 266 L/h/kg | anti-tubercular activity (in words) [1]: loss of activity | MIC ([1]; 120 h, read-out: MIC): > 20 µM

CN(CCc1cccc(Br)c1)C(=O)C1(c2ccccc2)CCC1 [PCB-14, N-(3-bromophenethyl)-N-methyl-1-phenylcyclobutane-1-carboxamide]
microsomal clearance / stability (in words) [2]: highly metabolized | CLint scaled at 0.5 µM [2]: 447 L/h/kg | anti-tubercular activity (in words) [1]: inactive | MIC ([1]; 120 h, read-out: MIC): > 20 µM

O=C(NCCc1cccc(Br)c1)C1(c2ccc(Cl)cc2)CCC1 [PCB-15, N-(3-bromophenethyl)-1-(4-chlorophenyl)cyclobutane-1-carboxamide]
microsomal clearance / stability (in words) [2]: clearances increased | CLint scaled at 0.5 µM [2]: 559 L/h/kg | anti-tubercular activity (in words) [1]: slight reduction | MIC ([1]; 120 h, read-out: MIC): 9.7 ± 6.7 µM (≈ 3.81 µg/mL)

O=C(NCCc1cccc(Br)c1)C1(c2cccc(Cl)c2)CCC1 [PCB-16, N-(3-bromophenethyl)-1-(3-chlorophenyl)cyclobutane-1-carboxamide]
microsomal clearance / stability (in words) [2]: clearances increased | CLint scaled at 0.5 µM [2]: 552 L/h/kg | anti-tubercular activity (in words) [1]: little change | MIC ([1]; 120 h, read-out: MIC): 5 ± 1.6 µM (≈ 1.96 µg/mL) | MIC [1, 3]: 5 µM (≈ 1.96 µg/mL)

O=C(NCCc1cccc(Br)c1)C1(c2ccccc2Cl)CCC1 [PCB-17, N-(3-bromophenethyl)-1-(2-chlorophenyl)cyclobutane-1-carboxamide]
microsomal clearance / stability (in words) [2]: clearances increased | CLint scaled at 0.5 µM [2]: 673 L/h/kg | anti-tubercular activity (in words) [1]: increase in activity | MIC ([1]; 120 h, read-out: MIC): 1.8 ± 0.7 µM (≈ 0.707 µg/mL) | MIC [1, 3]: 1.8 µM (≈ 0.707 µg/mL)

O=C(NCCc1cccc(Br)c1)C1(c2ccc(Cl)cc2Cl)CCC1 [PCB-18, N-(3-bromophenethyl)-1-(2,4-dichlorophenyl)cyclobutane-1-carboxamide]
microsomal clearance / stability (in words) [2]: very low stability | CLint scaled at 0.5 µM [2]: 1690 L/h/kg | anti-tubercular activity (in words) [1]: low antitubercular activity | MIC ([1]; 120 h, read-out: MIC): 13 ± 5 µM (≈ 5.55 µg/mL)

COc1ccc(-c2cc(N)nc(-n3nc(C)cc3C)n2)cc1 [PZP-1]
IC90 [1]: 5.2 µM

Cc1cc(C)n(-c2nc(N)cc(-c3cccc(F)c3)n2)n1 [PZP-2]
IC90 [1]: 7.4 µM
